Assay results: PMC12002301, “Discovery and functional characterization of a bombesin-type neuropeptide signaling system in an invertebrate” (Proceedings of the National Academy of Sciences of the …, 2025)
Entries after “also recorded” stand apart in the source; their conditions may differ. Ends that are not written are not given here.

Key:
[1] = test system: tube foot preparations; conditions: cited from earlier work
Description: Based on the expression of ArBNP in the cardiac stomach and tube feet of A. rubens, experiments were performed to investigate effects of ArBN on in vitro preparations of these organs. […] In experiments where cardiac stomach preparations were washed in between application of ArBN at different ...

[2] = test system: GPCR activated by BN-type neuropeptide; conditions: Branchiostoma japonicum; cited from earlier work
From the text: Insights into the evolutionary history of BN-type neuropeptide signaling have been obtained from phylogenetic analysis of genome sequence data. A gene encoding a BN-type neuropeptide precursor was identified in the invertebrate chordate Branchiostoma floridae [subphylum Cephalochordata; ([4])] and, subsequently, experimental characterization of BN-type neuropeptide signaling in the cephalochordate Branchiostoma japonicum has been reported ([24]). A GPCR that is activated by the BN-type neuropeptide DKGQEHWQYGHWY-NH2 was identified. Furthermore, expression of the gene encoding this neuropeptide ...

[3] = test system: fundic muscle of mice; conditions: cited from earlier work
From the text: (§1) The functional characterization of ArBN in A. rubens provides insights into the comparative physiology of BN-type neuropeptide signaling.

[4] = test system: BB2 receptor (GRP-R); parameters: method as in PMID 1707129, PMID 1848080, PMID 1671171, PMID 1655761, PMID 31593737; conditions: mammals; cited from earlier work
[5] = test system: everted cardiac stomach of A. rubens; test: In vivo retraction of everted cardiac stomach; parameters: species or system Asterias rubens; conditions: 10 µL of 10^-4 M injected, words
From the text: Therefore, we performed experiments to investigate whether ArBN causes cardiac stomach retraction in A. rubens when injected in vivo. A description of the methods employed for investigation of in vivo effects of ArBN on the everted cardiac stomach of A. rubens is included in SI Appendix, SI Methods. […]
foot preparations. Having determined that ArBN had effects on preparations when tested at a high concentration (10^-6 M), then dose-response data for this peptide were obtained with final concentrations in the organ bath ranging from 10^-10 M to 10^-6 M. Two types of tests were performed when obtaining dose-response data for ArBN:
Test type 1: Here the preparation was washed thoroughly with seawater after adding ArBN to the organ at different concentrations. […]
The contraction effect of NGFFYamide (10^-7 M) or ACh (10^-5 M) was defined as 100% and the effects of ArBN were calculated as a percentage of the effect of NGFFYamide or ACh. […]
Analysis of the in vivo effects of ArBN on the everted cardiac stomach of A. rubens The physiological status of the starfish (~8 cm in diameter) tested was normalized by a 7-day starvation period. […] Then, the starfish was firstly injected with 10 µl of distilled water (negative control) and video recorded using a camera (Canon EOS 700D) for 7 min. Then, the same starfish was injected with NGFFYamide (positive control) or ArBN and video recorded for 7 min. […]

[6] = test system: cardiac stomach preparations; conditions: cited from earlier work
Description: Based on the expression of ArBNP in the cardiac stomach and tube feet of A. rubens, experiments were performed to investigate effects of ArBN on in vitro preparations of these organs. […] In experiments where cardiac stomach preparations were washed in between application of ArBN at different ... || Starfish (A. rubens) feed by everting their cardiac stomach out of the mouth over the digestible soft tissues of prey (e.g., mussels) and when feeding is completed, the stomach is retracted back into the central disk region of the body ([45]). […] Discovery of neuropeptides that exert excitatory or inhibitory effects on the cardiac stomach in vitro is of interest with respect to the unusual feeding behavior of A. rubens and other starfish. When starfish feed on bivalve mollusks such as mussels, they use the collective pulling power of tube feet loca ...

[7] = test system: everted cardiac stomach of A. rubens; conditions: cited from earlier work
From the text: Starfish (A. rubens) feed by everting their cardiac stomach out of the mouth over the digestible soft tissues of prey (e.g., mussels) and when feeding is completed, the stomach is retracted back into the central disk region of the body ([45]). […] Discovery of neuropeptides that exert excitatory or inhibitory effects on the cardiac stomach in vitro is of interest with respect to the unusual feeding behavior of A. rubens and other starfish. When starfish feed on bivalve mollusks such as mussels, they use the collective pulling power of tube feet loca ...

[8] = test system: A. rubens feeding behavior; conditions: vs water; cited from earlier work
Description: Based on the effects of NGFFYamide, ArSK/CCK1, and ArSK/CCK2 in triggering a process associated with termination of feeding behavior—cardiac stomach retraction—the effects of neuropeptides on feeding behavior of starfish have also been investigated. In these experiments starfish were starved and then presented with prey (a mussel) in a testing tank and the time taken to touch, enclose, and then consume the mussel was measured.

[9] = test system: BB1 receptor (NMB-R); conditions: mammals; cited from earlier work
From the text: BN-type neuropeptides exert their effects by binding to GPCRs. In mammals, NMB and GRP act as high affinity ligands for the BB1 receptor (NMB-R) and the BB2 receptor (GRP-R), respectively, and orthologs of these receptors have been identified in nonmammalian vertebrates ([20]–[24]). […] BN-type neuropeptides are involved in regulation of a variety of physiological and behavioral processes in mammals/vertebrates, including t ...

[10] = test system: intestinal smooth muscle from caimans; conditions: cited from earlier work
From the text: as §1

CC(=O)OCC[N+](C)(C)C [ACh, acetylcholine]
effect on tube foot preparations in vitro [1]: causes contraction of tube foot preparations in vitro

DKGQEHWQYGHWY-NH2 [BN-type neuropeptide of the cephalochordate Branchiostoma japonicum]
GPCR activation [2]: activated

GRP: BN-like peptide identified in the porcine gut (APVSVGGGTVLAKMYPRGNHWAVGHLM; ends and bridges not checked; UniProt P63153 24-50, looked up)
contraction of fundic muscle [3]: dose-dependent contraction | affinity for BB2 receptor (GRP-R) [4]: high affinity

NGFFYamide [positive control]
cardiac stomach retraction [5]: caused cardiac stomach retraction | effect on cardiac stomach preparations in vitro [6]: causes contraction of cardiac stomach preparations in vitro; also recorded: triggers cardiac stomach contraction in vitro; also recorded: cause cardiac stomach contraction in vitro | cardiac stomach retraction in vivo [7]: retraction in vivo; also recorded: trigger retraction of the everted cardiac stomach | time taken to enclose a mussel [8]: increase in the time taken for starfish to touch and enclose a mussel | time taken to touch a mussel [8]: increase in the time taken for starfish to touch

NMB: ranatensin-like peptide identified in the porcine spinal cord
contraction of fundic muscle [3]: dose-dependent contraction | affinity for BB1 receptor (NMB-R) [9]: high affinity

pQQRLGNQWAVGHLM-NH2 [BN, peptide first isolated from the skin of the frog Bombina bombina]
effect on intestinal smooth muscle [10]: excitatory effect
